Assay results reported in ChEMBL document CHEMBL5120824, “Synthesis and pharmacological validation of fluorescent diarylsulfonylurea analogues as NLRP3 inhibitors and imaging probes” (Eur J Med Chem, 2022).
pIC50: −log10 of the molar value. Active and inactive are the calls of the source. No cut-off for these calls is given here.

What was measured:
[1] = Cytotoxicity against human THP-1 assessed as reduction in cell viability measured after 72 hrs by CCK-8 assay; type: toxicity, cell-based; details: THP-1 cells
[2] = target: NACHT, LRR and PYD domains-containing protein 3 (Homo sapiens, UniProt Q96P20); test: Inhibition of NLRP3 inflammasome activation in PMA differentiated LPS-primed human THP-1 cells assessed as reduction in nigericin-induced IL-1beta level pretreated for 2 hrs followed by nigericin addition and measured after 30 mins by ELISA; type: cell-based
[3] = target: NACHT, LRR and PYD domains-containing protein 3 (Mus musculus) (UniProt Q8R4B8); test: Binding affinity to NLRP3 in mouse RAW264.7 cells assessed as increase in mean fluorescence intensity at 10 uM preincubated with LPS for 3 hrs followed by compound addition and measured after 30 mins by beckman coulter based flow cytometry analysis; type: cell-based
[4] = Fluorescence property of the compound in DMSO assessed as maximum emission wavelength; type: physicochemical
[5] = Drug distribution in cytoplasm of mouse RAW264.7 cells expressing NLRP3 assessed as increase in green fluorescence at 10 uM incubated for 0.5 hrs by Hoechst 33342 staining based confocal microscopic analysis; type: ADME, subcellular; details: raw264.7, 0.5 h
[6] = target: NACHT, LRR and PYD domains-containing protein 3 (Mus musculus) (UniProt Q8R4B8); test: Binding affinity to NLRP3 in mouse RAW264.7 cells assessed as thermal stabilization at 100 uM at 52 to 56 degreeC incubated for 6 hrs by cellular thermal shift assay; type: cell-based
[7] = target: NACHT, LRR and PYD domains-containing protein 3 (Mus musculus) (UniProt Q8R4B8); test: Binding affinity to NLRP3 in mouse RAW264.7 cells assessed as increase in mean fluorescence intensity at 10 uM incubated for 30 mins by beckman coulter based flow cytometry analysis; type: cell-based
[8] = Fluorescence property of the compound in DMSO assessed as quantum yield; type: physicochemical
[9] = Fluorescence property of the compound in DMSO assessed as maximum absorption wavelength; type: physicochemical
[10] = Fluorescence property of the compound in DMSO assessed as molar extinction coefficient; type: physicochemical

NACHT, LRR and PYD domains-containing protein 3 (Mus musculus), sequence (Q8R4B8 whole entry, the tested form may be a part): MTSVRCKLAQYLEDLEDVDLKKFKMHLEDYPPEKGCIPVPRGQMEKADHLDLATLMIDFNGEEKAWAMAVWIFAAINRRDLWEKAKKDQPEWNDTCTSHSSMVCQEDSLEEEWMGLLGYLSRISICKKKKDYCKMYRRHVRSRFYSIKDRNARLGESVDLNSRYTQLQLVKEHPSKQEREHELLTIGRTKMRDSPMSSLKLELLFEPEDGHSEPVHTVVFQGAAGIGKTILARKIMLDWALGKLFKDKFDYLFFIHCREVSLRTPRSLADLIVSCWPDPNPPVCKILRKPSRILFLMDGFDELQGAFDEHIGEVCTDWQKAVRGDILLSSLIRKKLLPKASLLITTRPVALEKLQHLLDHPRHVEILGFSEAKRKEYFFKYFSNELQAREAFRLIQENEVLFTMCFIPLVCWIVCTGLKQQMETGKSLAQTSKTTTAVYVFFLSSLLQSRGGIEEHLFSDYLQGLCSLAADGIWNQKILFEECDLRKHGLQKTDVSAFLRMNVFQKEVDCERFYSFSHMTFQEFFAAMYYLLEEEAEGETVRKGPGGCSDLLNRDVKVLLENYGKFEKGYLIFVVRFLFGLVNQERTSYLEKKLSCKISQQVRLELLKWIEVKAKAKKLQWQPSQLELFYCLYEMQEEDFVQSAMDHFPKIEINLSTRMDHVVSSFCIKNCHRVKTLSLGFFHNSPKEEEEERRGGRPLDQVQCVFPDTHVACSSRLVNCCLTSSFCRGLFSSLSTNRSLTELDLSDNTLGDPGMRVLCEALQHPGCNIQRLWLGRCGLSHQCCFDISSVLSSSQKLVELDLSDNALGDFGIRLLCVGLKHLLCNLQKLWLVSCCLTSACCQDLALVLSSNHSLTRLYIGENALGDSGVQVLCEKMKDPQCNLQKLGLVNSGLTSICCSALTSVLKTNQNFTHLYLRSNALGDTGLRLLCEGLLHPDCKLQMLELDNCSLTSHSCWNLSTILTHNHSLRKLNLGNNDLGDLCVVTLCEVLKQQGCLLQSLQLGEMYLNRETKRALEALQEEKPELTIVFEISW
NACHT, LRR and PYD domains-containing protein 3, sequence (Q96P20 whole entry, the tested form may be a part): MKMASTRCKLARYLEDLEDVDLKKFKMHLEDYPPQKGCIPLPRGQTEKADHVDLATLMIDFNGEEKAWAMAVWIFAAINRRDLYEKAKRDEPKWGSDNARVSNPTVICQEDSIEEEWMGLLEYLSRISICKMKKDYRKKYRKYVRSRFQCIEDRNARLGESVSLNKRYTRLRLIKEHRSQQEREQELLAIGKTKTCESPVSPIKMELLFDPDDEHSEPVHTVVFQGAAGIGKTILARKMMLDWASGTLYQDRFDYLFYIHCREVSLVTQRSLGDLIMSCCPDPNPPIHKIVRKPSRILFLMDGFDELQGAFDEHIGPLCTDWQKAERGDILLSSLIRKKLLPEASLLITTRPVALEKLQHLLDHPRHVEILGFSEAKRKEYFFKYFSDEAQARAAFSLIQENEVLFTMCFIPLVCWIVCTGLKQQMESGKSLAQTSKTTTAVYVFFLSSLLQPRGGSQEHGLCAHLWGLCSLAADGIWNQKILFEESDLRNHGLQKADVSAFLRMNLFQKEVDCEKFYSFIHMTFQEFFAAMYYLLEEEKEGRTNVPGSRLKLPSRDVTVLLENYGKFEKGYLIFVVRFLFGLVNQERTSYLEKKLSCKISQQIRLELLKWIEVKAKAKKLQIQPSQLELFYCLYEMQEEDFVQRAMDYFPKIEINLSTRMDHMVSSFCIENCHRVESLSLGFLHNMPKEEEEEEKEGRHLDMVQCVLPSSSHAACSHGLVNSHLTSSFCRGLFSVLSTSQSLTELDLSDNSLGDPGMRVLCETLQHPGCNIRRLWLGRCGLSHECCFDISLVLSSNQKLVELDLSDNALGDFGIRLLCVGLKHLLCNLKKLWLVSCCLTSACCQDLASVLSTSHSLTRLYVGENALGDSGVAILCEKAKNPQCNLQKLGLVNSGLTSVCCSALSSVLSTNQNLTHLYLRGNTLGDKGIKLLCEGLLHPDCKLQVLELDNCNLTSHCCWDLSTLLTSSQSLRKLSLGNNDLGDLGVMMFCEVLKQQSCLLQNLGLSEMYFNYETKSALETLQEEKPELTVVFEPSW

Compound: CN(C)c1ccc(S(=O)(=O)NC(=O)Nc2c3c(cc4c2CCC4)CCC3)c2n[se]nc12
- CC50 at 72 h [1]: > 100 µM

Compound: CC(C)(O)c1coc(S(=O)(=O)NC(=O)Nc2c3c(cc4c2CCC4)CCC3)c1
- CC50 at 72 h [1]: 81.4 µM

Compound: CN(C)c1cccc2c(S(=O)(=O)NC(=O)Nc3c4c(cc5c3CCC5)CCC4)cccc12
- pIC50 [2]: 5.04
- CC50 at 72 h [1]: > 100 µM

Compound: O=C(Nc1c2c(cc3c1CCC3)CCC2)NS(=O)(=O)c1ccc(NC2CC(F)(F)C2)c2nonc12
- CC50 at 72 h [1]: > 100 µM

Compound: CC(C)(C)OC(=O)NC1CN(c2ccc(S(=O)(=O)NC(=O)Nc3c4c(cc5c3CCC5)CCC4)c3nonc23)C1
- CC50 at 72 h [1]: > 100 µM

Compound: CN(C)c1ccc(S(=O)(=O)NC(=O)Nc2c3c(cc4c2CCC4)CCC3)c2nsnc12
- Activity [3]: Active
- Activity [4]: 602 nm
- Drug uptake [5]: Active
- Activity [6]: Active
- Activity [7]: Active
- Activity [8]: 6%
- Activity [9]: 450 nm
- Activity [10]: 8085 M⁻¹ cm⁻¹
- CC50 at 72 h [1]: > 100 µM

Compound: CN(C)c1ccc(S(=O)(=O)NC(=O)Nc2c3c(cc4c2CCC4)CCC3)c2nonc12
- Activity [4]: 586 nm
- Activity [6]: Active
- Activity [8]: 16%
- Activity [9]: 448 nm
- Activity [10]: 7406 M⁻¹ cm⁻¹
- CC50 at 72 h [1]: > 100 µM

Compound: O=C(Nc1c2c(cc3c1CCC3)CCC2)NS(=O)(=O)c1ccc(N2CCN(CCO)CC2)c2nonc12
- pIC50 [2]: 5.62
- CC50 at 72 h [1]: > 100 µM

Compound: CN(C)[C@@H]1CCCC[C@H]1N(C)c1ccc(S(=O)(=O)NC(=O)Nc2c3c(cc4c2CCC4)CCC3)c2nonc12
- CC50 at 72 h [1]: > 100 µM

Compound: O=C(Nc1c2c(cc3c1CCC3)CCC2)NS(=O)(=O)c1ccc(N2C[C@@H]3[C@@H](CO)[C@@H]3C2)c2nonc12
- CC50 at 72 h [1]: > 100 µM

Compound: O=C(Nc1c2c(cc3c1CCC3)CCC2)NS(=O)(=O)c1ccc(Cl)c2nonc12
- CC50 at 72 h [1]: > 100 µM

Compound: O=C(Nc1c2c(cc3c1CCC3)CCC2)NS(=O)(=O)c1ccc(N2CC3CCC(C2)O3)c2nonc12
- CC50 at 72 h [1]: > 100 µM

Compound: O=C(Nc1c2c(cc3c1CCC3)CCC2)NS(=O)(=O)c1ccc(N2CCOCC2)c2nonc12
- CC50 at 72 h [1]: > 100 µM

Compound: CSc1ccc(S(=O)(=O)NC(=O)Nc2c3c(cc4c2CCC4)CCC3)c2nonc12
- CC50 at 72 h [1]: > 100 µM
